For data set [1] the following is noted: buffer, pH 10.
The nature of data set [2]: Dissociation constant, pKa of the compound. It counts as physicochemical.

Regarding `CCN1c2ncccc2C(=O)N(C)c2ccc(Cl)nc21`, the logS0 in data set [1] is listed as -4.11. In turn, `CCN1c2ccccc2N(C)C(=O)c2cccnc21` showed a logS0 in data set [1] of -3.32. In data set [1], `CN1C(=O)c2cccnc2N(C(C)(C)C)c2ncccc21` came in with a logS0 of -4.85. On to `COC(=O)c1cc2nc([S+]([O-])Cc3nccc(OC)c3OC)[nH]c2cc1C` (stereo not drawn), for which the logS0 in data set [1] is -4.41.

For the molecule `CCCCn1c(C)nc2c1c(=O)n(C)c(=O)n2C`, the logS0 in data set [1] was -1.75. The molecule `CCCCCC1(CC)C(=O)NC(=O)NC1=O` showed a logS0 in data set [1] of -2.34. Same read-out and setting: the result for `CCOC(=O)OCn1c([S+]([O-])Cc2nccc(OC)c2OC)nc2cc(C(=O)OC)c(C)cc21` (stereo not drawn) reads -5.21; that for `C=CCC1(CCCC)C(=O)NC(=O)NC1=O`, -2.11. As for `CCN1c2ncccc2C(=O)N(C)c2c(C)cc(OC)nc21`, the logS0 in data set [1] was -2.62. `Cc1ccnc2c1NC(C#N)c1cccnc1N2C1CC1` (stereo not drawn): the logS0 in data set [1] is reported as -4.74. The same measure, in the same setting: the figure for `Cc1ccc2c(c1)C(=O)Nc1cc(N)ccc1O2` is -3.93; for `CCCCC1(CC=C(C)C)C(=O)NC(=O)NC1=O` it is -3.55.

The molecule `CN1C(=O)c2cccnc2Oc2ccccc21` gave a logS0 in data set [1] of -3.76. In turn, `CC(C(=O)O)c1ccc(N2Cc3ccccc3C2=O)cc1` (single isomer, unassigned; (+)) [INDOPROFEN] registered a pKa in data set [2] of 4.6. In data set [1], this molecule had a logS0 of -4.72. Turning to `C=CCOc1ccc(CC(=O)O)cc1Cl` [ALCLOFENAC], the logS0 in data set [1] is -3.13. The same measure, in the same setting: the result for `CCC[S+]([O-])CCCN(CC)CC(O)COc1ccc(C#N)cc1` (stereo not drawn) [ALMOKALANT] reads -1.17; that for `C=CCc1ccccc1OCC(O)CNC(C)C` (stereo not drawn) [ALPRENOLOL], -2.83; that for `CCCCC[C@H](O)/C=C/[C@H]1[C@H](O)CC(=O)[C@@H]1CCCCCCC(=O)O` [ALPROSTADIL], -3.67.

With `CCOC(=O)c1ccc(N)cc1` [BENZOCAINE], the logS0 in data set [1] is -2.34.

In turn, `O=C(O)c1ccccc1` [BENZOIC ACID] showed a logS0 in data set [1] of -1.58. For `C[C@H]1C[C@H]2[C@@H]3CCC4=CC(=O)C=C[C@]4(C)[C@@]3(F)[C@@H](O)C[C@]2(C)[C@@]1(O)C(=O)CO` [BETAMETHASONE], the logS0 in data set [1] is -3.77.

In the case of `C=C(Br)CC1(C(C)CC)C(=O)NC(=O)NC1=O` (stereo not drawn) [BUTALLYLONAL], the logS0 in data set [1] is -2.65. `CCCNC(=O)NS(=O)(=O)c1ccc(Cl)cc1` [CHLORPROPAMIDE] returned a pKa in data set [2] of 4.8. Also, in data set [1], the logS0 was -3.3. `COC(=O)[C@H]1[C@@H](OC(=O)c2ccccc2)C[C@@H]2CC[C@H]1N2C` [COCAINE] gave a logS0 in data set [1] of -2.25. In data set [1], `C[C@]12C[C@H](O)[C@H]3[C@@H](CCC4=CC(=O)CC[C@@]43C)[C@@H]1CC[C@@H]2C(=O)CO` [CORTICOSTERONE] returned a logS0 of -3.28.

As to `CC(=O)OCC(=O)[C@@]1(O)CC[C@H]2[C@@H]3CCC4=CC(=O)CC[C@]4(C)[C@H]3C(=O)C[C@@]21C` [CORTISONE ACETATE], the logS0 in data set [1] is reported as -4.21. `CCC1(C2=CCCCC2)C(=O)NC(=O)NC1=O` [CYCLOBARBITAL] yielded a logS0 in data set [1] of -2.12.

`CC(C)Nc1cccnc1N1CCN(C(=O)c2cc3cc(NS(C)(=O)=O)ccc3[nH]2)CC1` [DELAVIRDINE] came in with a logS0 in data set [1] of -5.74. With `NCCN1C(=O)CN=C(c2ccccc2F)c2cc(Cl)ccc21` [DESALKYLFLURAZEPAM], the pKa in data set [2] stood at 11.6. In data set [1], the logS0 is on record as -3.72. `C[C@@H]1C[C@H]2[C@@H]3CCC4=CC(=O)C=C[C@]4(C)[C@@]3(F)[C@@H](O)C[C@]2(C)[C@@]1(O)C(=O)CO` [DEXAMETHASONE] had a logS0 in data set [1] of -3.59. The molecule `CCCCC[C@H](O)/C=C/[C@H]1[C@H](O)CC(=O)[C@@H]1C/C=C\CCCC(=O)O` [DINOPROSTONE] came in with a logS0 in data set [1] of -2.47. In data set [2], `CC(C)N(CCC(C(N)=O)(c1ccccc1)c1ccccn1)C(C)C` (stereo not drawn) [DISOPYRAMIDE] returned a pKa of 10.1. The logS0 in data set [1] is -2.38. On the same counts, the results for `CCOC(=O)c1ccc(O)cc1` [ETHYLPARABEN] are 8.3 and -2.38.

`COC1=CC(=O)C[C@@H](C)[C@]12Oc1c(Cl)c(OC)cc(OC)c1C2=O` [GRISEOFULVIN]: the logS0 in data set [1] was -4.83. The molecule `CCC1(C2=CCCCCC2)C(=O)NC(=O)NC1=O` [HEPTABARBITAL] showed a logS0 in data set [1] of -2.91. Take `CC(=O)OCC(=O)[C@@]1(O)CC[C@H]2[C@@H]3CCC4=CC(=O)CC[C@]4(C)[C@H]3[C@@H](O)C[C@@]21C` [HYDROCORTISONE ACETATE]: the logS0 in data set [1] was -4.34. Regarding `CC(=O)N1CCN(c2ccc(OC[C@H]3CO[C@](Cn4ccnc4)(c4ccc(Cl)cc4Cl)O3)cc2)CC1` [KETOCONAZOLE], the logS0 in data set [1] is -3.8. On the same count and under the same terms, the result for `CC(CCc1ccccc1)NCC(O)c1ccc(O)c(C(N)=O)c1` (stereo not drawn) [LABETALOL] reads -3.41. As to `O=C1Nc2ccc(Cl)cc2C(c2ccccc2Cl)=NC1O` (stereo not drawn) [LORAZEPAM], the pKa in data set [2] was 11.5. The logS0 in data set [1] is -3.74.

Consider `Cc1ccccc1N1C(=O)c2cc(S(N)(=O)=O)c(Cl)cc2NC1C` (stereo not drawn) [METOLAZONE], for which the logS0 in data set [1] is -4.33. For `COc1ccc2[nH]c([S+]([O-])Cc3ncc(C)c(OC)c3C)nc2c1` (stereo not drawn) [OMEPRAZOLE], the pKa in data set [2] stood at 8.9. In addition, in data set [1], the logS0 was -3.4. In turn, `Nc1ccc(/N=N/c2ccccc2)c(N)n1` [PHENAZOPYRIDINE] gave a logS0 in data set [1] of -4.53.

In data set [1], `O=C1NC(=O)C(c2ccccc2)(c2ccccc2)N1` [PHENYTOIN] returned a logS0 of -4.15.

As to `CN1C(C(=O)Nc2ccccn2)=C(O)c2ccccc2S1(=O)=O` [PIROXICAM], in data set [1], the logS0 is on record as -4.03. On the same count and under the same terms, the figure for `CC(=O)OCC(=O)[C@@]1(O)CC[C@H]2[C@@H]3CCC4=CC(=O)C=C[C@]4(C)[C@H]3[C@@H](O)C[C@@]21C` [PREDNISOLONE ACETATE] is -4.37. Consider `COc1cc(NC(C)CCCN)c2ncccc2c1` (stereo not drawn) [PRIMAQUINE], for which the logS0 in data set [1] is reported as -2.52. Same read-out and setting: the result for `CCN(CC)CCOC(=O)c1ccc(N)cc1` [PROCAINE] reads -1.78; that for `CC(C)NCC(O)COc1cccc2ccccc12` (stereo not drawn) [PROPRANOLOL], -3.92.

As to `CCC1(C2=CC3CCC(C2)C3)C(=O)NC(=O)NC1=O` (stereo not drawn) [REPOSAL], in data set [1], the logS0 is listed as -2.7. The molecule `O=C(O)c1ccccc1O` [SALICYLIC ACID] gave a logS0 in data set [1] of -1.8. `C=CCC1(C(C)CCC)C(=O)NC(=O)NC1=O` (stereo not drawn) [SECOBARBITAL] showed a pKa in data set [2] of 7.8. Besides, the logS0 in data set [1] was -2.36.

The molecule `CC(=O)OCC(=O)[C@@]1(O)[C@H](OC(C)=O)C[C@H]2[C@@H]3CCC4=CC(=O)C=C[C@]4(C)[C@@]3(F)[C@@H](O)C[C@@]21C` [TRIAMCINOLONE DIACETATE] registered a logS0 in data set [1] of -4.31. Take `Cc1nnc2n1-c1ccc(Cl)cc1C(c1ccccc1Cl)=NC2` [TRIAZOLAM]: the logS0 in data set [1] is on record as -4.04. Regarding `COc1cc2c(N)nc(N3CCN(C(=O)OCC(C)(C)O)CC3)nc2c(OC)c1OC` [TRIMAZOSIN], in data set [1], the logS0 is -3.64. In the case of `CC/C=C(\C)C1(CC)C(=O)NC(=O)NC1=O` [VINBARBITAL], in data set [1], the logS0 is given as -2.3.

What is called pKa is the pH at which an ionisable group is half protonated. Read a high pKa as a group that holds its proton tightly.

The values are drawn from ChEMBL document CHEMBL1150239, “Molecular characteristics for solid-state limited solubility” (J Med Chem, 2008).
